Key:
Test in all cases: biochemical
Settings in all cases: read-out: % Inhibition (at 10mM)
[1] = target: SRPK2 (Homo sapiens, UniProt P78362)
[2] = target: T1, CamK1_gamma (Homo sapiens, UniProt Q96NX5)
T1 construct: gene CAMK1G

[3] = target: T2, DNA-PK (Homo sapiens, UniProt P78527)
T2 construct: gene PRKDC

[4] = target: PAK4 (Homo sapiens, UniProt O96013)
[5] = target: T3, CK1_gamma2 (Homo sapiens, UniProt P78368)
T3 construct: gene CSNK1G2

[6] = target: T4, PKC_zeta (Homo sapiens, UniProt Q05513)
T4 construct: gene PRKCZ

[7] = target: DYRK3 (Homo sapiens, UniProt O43781)
[8] = target: Lyn (Homo sapiens, UniProt P07948)
[9] = target: MuSK (Homo sapiens, UniProt O15146)
[10] = target: AKT2 (Homo sapiens, UniProt P31751)
[11] = target: Fgr (Homo sapiens, UniProt P09769)
[12] = target: T5, CK1_alpha1 (Homo sapiens, UniProt P48729)
T5 construct: gene CSNK1A1

[13] = target: T6, CamKIV (Homo sapiens, UniProt Q16566)
T6 construct: gene CAMK4

[14] = target: PAK2 (Homo sapiens, UniProt Q13177)
[15] = target: HIPK2 (Homo sapiens, UniProt Q9H2X6)
[16] = target: CSF1R (Homo sapiens, UniProt P07333)
[17] = target: T7, TrkA (Homo sapiens, UniProt P04629)
T7 construct: gene NTRK1

[18] = target: EphA5 (Homo sapiens, UniProt P54756)
[19] = target: T8, PKC_alpha (Homo sapiens, UniProt P17252)
T8 construct: gene PRKCA

[20] = target: Flt1 (Homo sapiens, UniProt P17948)
[21] = target: T9, ERK1 (Homo sapiens, UniProt P27361)
T9 construct: gene MAPK3

[22] = target: T10, PCTK2 (Homo sapiens, UniProt Q00537)
T10 construct: gene CDK17

[23] = target: PIM2 (Homo sapiens, UniProt Q9P1W9)
[24] = target: T11, CK2_alpha1 (Homo sapiens, UniProt P68400)
T11 construct: gene CSNK2A1

[25] = target: T12, ZAP-70 (Homo sapiens, UniProt P43403)
T12 construct: gene ZAP70

[26] = target: GRK6 (Homo sapiens, UniProt P43250)
[27] = target: DYRK1A (Homo sapiens, UniProt Q13627)
[28] = target: T13, Ros (Homo sapiens, UniProt P08922)
T13 construct: gene ROS1

[29] = target: T14, PRKAA2_B2_G3 (Homo sapiens, UniProt P54646)
T14 construct: gene PRKAA2

[30] = target: TNK1 (Homo sapiens, UniProt Q13470)
[31] = target: T15, GSK3_beta (Homo sapiens, UniProt P49841)
T15 construct: gene GSK3B

[32] = target: ErbB2 (Homo sapiens, UniProt P04626)
[33] = target: Blk (Homo sapiens, UniProt P51451)
[34] = target: JAK2 (Homo sapiens, UniProt O60674)
[35] = target: T16, PAK7 (Homo sapiens, UniProt Q9P286)
T16 construct: gene PAK5

[36] = target: T17, MSK2 (Homo sapiens, UniProt O75676)
T17 construct: gene RPS6KA4

[37] = target: ErbB4 (Homo sapiens, UniProt Q15303)
[38] = target: MARK4 (Homo sapiens, UniProt Q96L34)

T5 sequence (P48729 whole entry): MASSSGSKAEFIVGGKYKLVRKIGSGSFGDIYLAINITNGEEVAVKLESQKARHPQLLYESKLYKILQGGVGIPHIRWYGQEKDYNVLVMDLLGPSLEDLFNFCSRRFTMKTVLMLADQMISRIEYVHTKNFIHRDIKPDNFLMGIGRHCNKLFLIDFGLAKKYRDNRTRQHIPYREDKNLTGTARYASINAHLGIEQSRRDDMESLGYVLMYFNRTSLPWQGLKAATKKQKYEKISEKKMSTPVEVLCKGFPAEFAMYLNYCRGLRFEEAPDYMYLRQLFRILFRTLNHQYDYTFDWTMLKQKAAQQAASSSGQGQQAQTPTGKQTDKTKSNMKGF
GRK6, sequence (P43250 whole entry): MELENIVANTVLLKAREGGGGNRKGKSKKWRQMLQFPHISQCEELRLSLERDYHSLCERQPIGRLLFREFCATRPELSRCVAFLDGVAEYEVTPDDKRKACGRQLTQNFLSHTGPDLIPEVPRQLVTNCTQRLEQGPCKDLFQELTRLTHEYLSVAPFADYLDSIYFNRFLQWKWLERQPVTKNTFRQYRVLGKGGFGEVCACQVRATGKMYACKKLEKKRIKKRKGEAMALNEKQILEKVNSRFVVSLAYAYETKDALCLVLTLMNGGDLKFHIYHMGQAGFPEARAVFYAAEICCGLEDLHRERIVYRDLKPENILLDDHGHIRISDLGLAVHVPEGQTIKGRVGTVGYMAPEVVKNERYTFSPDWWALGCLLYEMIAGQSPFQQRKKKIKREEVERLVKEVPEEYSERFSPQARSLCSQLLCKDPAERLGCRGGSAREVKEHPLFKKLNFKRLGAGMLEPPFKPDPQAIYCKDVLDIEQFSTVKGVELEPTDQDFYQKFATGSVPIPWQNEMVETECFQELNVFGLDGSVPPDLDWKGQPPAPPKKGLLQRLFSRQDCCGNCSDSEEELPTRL
T17 sequence (O75676 whole entry): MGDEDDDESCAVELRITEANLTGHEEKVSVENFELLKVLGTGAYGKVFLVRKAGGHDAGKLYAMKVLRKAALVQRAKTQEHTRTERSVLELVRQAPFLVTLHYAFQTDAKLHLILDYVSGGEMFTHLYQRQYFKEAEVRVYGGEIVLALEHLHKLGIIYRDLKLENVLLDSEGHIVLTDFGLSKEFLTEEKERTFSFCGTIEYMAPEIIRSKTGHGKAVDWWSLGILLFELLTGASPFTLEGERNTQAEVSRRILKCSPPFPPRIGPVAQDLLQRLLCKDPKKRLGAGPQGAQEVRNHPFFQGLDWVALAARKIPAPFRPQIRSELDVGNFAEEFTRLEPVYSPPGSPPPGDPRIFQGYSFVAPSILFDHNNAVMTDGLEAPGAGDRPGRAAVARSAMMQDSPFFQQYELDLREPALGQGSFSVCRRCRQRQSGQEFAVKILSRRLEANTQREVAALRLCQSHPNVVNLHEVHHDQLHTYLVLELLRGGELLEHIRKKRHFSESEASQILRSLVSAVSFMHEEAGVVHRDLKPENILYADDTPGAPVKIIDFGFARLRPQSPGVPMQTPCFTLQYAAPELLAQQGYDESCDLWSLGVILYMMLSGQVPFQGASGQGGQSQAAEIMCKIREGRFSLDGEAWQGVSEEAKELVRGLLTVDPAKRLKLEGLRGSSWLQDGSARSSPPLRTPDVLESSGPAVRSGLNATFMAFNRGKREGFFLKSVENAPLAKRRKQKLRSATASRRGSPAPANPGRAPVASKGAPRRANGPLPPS
PIM2, sequence (Q9P1W9 whole entry): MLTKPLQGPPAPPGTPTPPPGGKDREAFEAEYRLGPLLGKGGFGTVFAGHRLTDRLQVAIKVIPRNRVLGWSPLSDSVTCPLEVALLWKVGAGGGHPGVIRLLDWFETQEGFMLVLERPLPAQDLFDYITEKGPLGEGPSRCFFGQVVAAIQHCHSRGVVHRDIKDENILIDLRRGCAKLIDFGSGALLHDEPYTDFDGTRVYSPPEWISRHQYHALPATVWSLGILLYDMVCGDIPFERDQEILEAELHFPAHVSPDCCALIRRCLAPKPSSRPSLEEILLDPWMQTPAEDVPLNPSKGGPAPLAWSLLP
Lyn, sequence (P07948 whole entry): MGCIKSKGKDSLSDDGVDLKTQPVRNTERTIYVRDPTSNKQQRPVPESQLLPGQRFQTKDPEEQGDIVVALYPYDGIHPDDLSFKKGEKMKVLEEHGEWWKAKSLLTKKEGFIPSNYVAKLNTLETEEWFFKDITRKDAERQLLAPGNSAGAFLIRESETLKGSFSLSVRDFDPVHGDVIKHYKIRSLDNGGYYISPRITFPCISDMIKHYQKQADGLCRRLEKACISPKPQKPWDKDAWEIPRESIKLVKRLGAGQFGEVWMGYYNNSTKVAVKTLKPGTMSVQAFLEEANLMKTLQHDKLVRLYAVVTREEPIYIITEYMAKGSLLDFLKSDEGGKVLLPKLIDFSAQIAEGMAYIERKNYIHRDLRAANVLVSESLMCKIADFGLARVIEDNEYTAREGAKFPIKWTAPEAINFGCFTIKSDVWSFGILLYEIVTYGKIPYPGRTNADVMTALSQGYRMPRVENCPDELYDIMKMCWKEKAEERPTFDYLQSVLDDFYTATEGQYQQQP
AKT2, sequence (P31751 whole entry): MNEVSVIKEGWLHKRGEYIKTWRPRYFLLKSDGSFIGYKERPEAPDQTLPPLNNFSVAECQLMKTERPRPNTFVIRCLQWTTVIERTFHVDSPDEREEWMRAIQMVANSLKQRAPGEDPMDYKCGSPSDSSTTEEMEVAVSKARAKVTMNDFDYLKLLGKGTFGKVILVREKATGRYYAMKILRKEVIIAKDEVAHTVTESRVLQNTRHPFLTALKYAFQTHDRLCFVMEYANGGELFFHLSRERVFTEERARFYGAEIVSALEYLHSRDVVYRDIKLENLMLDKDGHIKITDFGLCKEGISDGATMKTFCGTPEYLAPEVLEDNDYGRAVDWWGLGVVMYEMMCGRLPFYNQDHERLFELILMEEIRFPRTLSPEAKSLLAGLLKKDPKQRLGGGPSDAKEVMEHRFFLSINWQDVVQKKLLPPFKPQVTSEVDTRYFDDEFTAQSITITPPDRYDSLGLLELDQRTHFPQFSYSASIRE
PAK4, sequence (O96013 whole entry): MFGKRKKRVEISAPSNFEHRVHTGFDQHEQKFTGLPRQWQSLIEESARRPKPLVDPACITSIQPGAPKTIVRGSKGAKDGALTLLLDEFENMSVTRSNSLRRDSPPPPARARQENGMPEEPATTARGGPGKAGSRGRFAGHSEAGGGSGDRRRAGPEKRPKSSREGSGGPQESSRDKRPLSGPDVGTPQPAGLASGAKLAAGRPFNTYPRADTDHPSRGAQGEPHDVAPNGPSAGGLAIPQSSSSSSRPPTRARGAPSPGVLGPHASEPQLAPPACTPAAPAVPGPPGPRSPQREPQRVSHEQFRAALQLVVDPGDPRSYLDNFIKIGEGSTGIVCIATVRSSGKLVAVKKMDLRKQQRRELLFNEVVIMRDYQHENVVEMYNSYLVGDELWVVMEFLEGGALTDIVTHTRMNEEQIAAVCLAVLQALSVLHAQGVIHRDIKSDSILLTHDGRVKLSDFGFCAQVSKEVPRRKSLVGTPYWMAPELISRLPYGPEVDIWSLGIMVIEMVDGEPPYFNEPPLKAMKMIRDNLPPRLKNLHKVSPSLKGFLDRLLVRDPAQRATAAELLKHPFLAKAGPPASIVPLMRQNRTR
TNK1, sequence (Q13470 whole entry): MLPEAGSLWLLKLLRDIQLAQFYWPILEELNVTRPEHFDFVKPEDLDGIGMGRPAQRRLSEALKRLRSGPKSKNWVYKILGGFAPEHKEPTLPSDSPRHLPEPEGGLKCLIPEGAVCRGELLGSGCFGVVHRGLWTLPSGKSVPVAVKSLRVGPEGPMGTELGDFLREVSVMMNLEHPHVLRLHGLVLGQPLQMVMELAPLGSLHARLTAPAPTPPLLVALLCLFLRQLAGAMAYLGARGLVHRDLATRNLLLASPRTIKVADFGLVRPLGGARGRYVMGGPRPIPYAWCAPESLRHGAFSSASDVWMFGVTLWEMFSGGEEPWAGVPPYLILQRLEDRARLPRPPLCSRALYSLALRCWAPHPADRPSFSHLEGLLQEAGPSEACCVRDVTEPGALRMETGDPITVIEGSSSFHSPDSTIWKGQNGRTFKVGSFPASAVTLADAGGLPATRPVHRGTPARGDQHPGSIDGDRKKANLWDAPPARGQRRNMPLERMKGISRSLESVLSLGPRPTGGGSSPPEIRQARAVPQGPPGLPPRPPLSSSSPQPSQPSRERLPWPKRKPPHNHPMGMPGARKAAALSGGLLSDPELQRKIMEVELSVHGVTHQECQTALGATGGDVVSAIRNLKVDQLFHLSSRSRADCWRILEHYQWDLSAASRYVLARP

- inhibition [1]: 2.5%
- inhibition [2]: 10%
- inhibition [3]: 11.5%
- inhibition [4]: 5.5%
- inhibition [5]: -5%
- inhibition [6]: 8.5%
- inhibition [7]: -0.5%
- inhibition [8]: 39.5%
- inhibition [9]: 17.5%
- inhibition [10]: 5.5%
- inhibition [11]: 65%
- inhibition [12]: 5.5%
- inhibition [13]: 6.5%
- inhibition [14]: 10.5%
- inhibition [15]: 6%
- inhibition [16]: 10.5%
- inhibition [17]: 29%
- inhibition [18]: 2%
- inhibition [19]: 13.5%
- inhibition [20]: -1.5%
- inhibition [21]: 3%
- inhibition [22]: 0.5%
- inhibition [23]: 5.5%
- inhibition [24]: -2.5%
- inhibition [25]: 2%
- inhibition [26]: -1.5%
- inhibition [27]: 9.5%
- inhibition [28]: 7.5%
- inhibition [29]: 9.5%
- inhibition [30]: 12%
- inhibition [31]: 9%
- inhibition [32]: 99%
- inhibition [33]: 25%
- inhibition [34]: 2%
- inhibition [35]: 5.5%
- inhibition [36]: 9.5%
- inhibition [37]: 98.5%
- inhibition [38]: 3.5%
SMILES: CC(C)(O)CC(=O)NCCn1ccc2ncnc(Nc3ccc(Oc4cccc(C(F)(F)F)c4)c(Cl)c3)c21 [TAK-285]
